In brackets after ≈: the same amount, converted by molar mass. Where two headings read alike, the source gives them in different places.
Assays:
[1] = biological target: T1, human estrogen receptor alpha (ERα) (Homo sapiens, UniProt P03372); assay: Yeast estrogen screen; type: cell-based; conditions: for Estrogenic effects in single testing (in words): single compounds, Figure SI 5B
T1 sequence (P03372 1-595): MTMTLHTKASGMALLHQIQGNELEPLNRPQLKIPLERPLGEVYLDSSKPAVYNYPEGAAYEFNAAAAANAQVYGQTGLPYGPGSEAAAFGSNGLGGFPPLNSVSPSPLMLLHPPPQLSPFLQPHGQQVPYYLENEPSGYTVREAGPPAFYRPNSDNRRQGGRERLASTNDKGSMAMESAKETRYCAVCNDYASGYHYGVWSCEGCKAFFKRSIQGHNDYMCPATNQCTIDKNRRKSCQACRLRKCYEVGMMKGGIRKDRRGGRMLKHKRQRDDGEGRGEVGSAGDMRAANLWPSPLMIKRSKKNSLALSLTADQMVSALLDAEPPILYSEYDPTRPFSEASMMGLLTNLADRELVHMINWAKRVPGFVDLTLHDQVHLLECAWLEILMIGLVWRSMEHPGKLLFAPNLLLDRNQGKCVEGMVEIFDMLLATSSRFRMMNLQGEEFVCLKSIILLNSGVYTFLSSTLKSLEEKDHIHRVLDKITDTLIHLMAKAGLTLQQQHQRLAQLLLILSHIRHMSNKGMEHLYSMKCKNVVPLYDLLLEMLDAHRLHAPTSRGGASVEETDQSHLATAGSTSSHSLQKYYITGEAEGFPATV

Aliivibrio fischeri = type: cell-based; conditions: present study
zebrafish embryos = conditions: ref McCormick et al. (2011); cited from earlier work
[2] = tested on: estrogen-related receptor; conditions: recombined yeast strains; ref Li et al. (2010); cited from earlier work
NIH3T3 cells = conditions: read-out: EC50, anti-androgenic effects, ref Kitamura et al. 2005; cited from earlier work
MCF-7 cells = conditions: read-out: EC50, estrogen-like effects, ref Kitamura et al. 2005; cited from earlier work
ERα = conditions: read-out: IC50, competitive binding to ERα; ref Nakagawa and Suzuki 2001; cited from earlier work
aquatic life = conditions: proposed by ECHA; ref ECHA; cited from earlier work
[3] = tested on: human placental JEG-3 cells; conditions: read-out: EC50, cytotoxic effects, ref Perez-Albaladejo et al. (2019); cited from earlier work
[4] = muscle, liver and gill tissue of wild fish, Panlong River; ref Wang et al. 2016; cited from earlier work
P450 aromatase = conditions: JEG-3 cells, at 20 µM; ref Perez-Albaladejo et al. (2019); cited from earlier work
[5] = aqueous solution, pseudo-first-order kinetic; ref Kovacic et al. 2019; cited from earlier work
[6] = leachates of UV irradiated coating B

Compound: COc1ccc(C(C)(C)c2ccc(O)cc2)cc1 [BPA-I11, 4-[1-(4-methoxyphenyl)-1-methylethyl]phenol]
- EC50 [1]: 0.666 µM
- Mean contribution to estrogenicity of the quantified substances (toxic units) [1, 6]: 2%
- Potency compared to BPA in the luminescent bacteria assay (Aliivibrio fischeri): more potent
- Half maximal lethal concentration (zebrafish embryos): up to 0.66 mg/l

Compound: Oc1ccccc1-c1ccccc1 [2PP, 2-phenylphenol]
- Estrogenic effects in single testing (in words) [1]: showed estrogenic potential

Compound: CC(C)(C)c1ccccc1O [2-tert-butylphenol]
- Effect on estrogen-related receptor gamma [2]: inverse agonistic effects

Compound: CC(C)(c1ccc(O)cc1)c1ccc(O)c(O)c1 [BPA-I10, 5-hydroxybisphenol A]
- EC50 (NIH3T3 cells): 14 µM
- EC50 ([1]; read-out: EC50, yeast estrogen screen, single compound, present results): 31 µM
- EC50, yeast estrogen screen ([1]; single compound, present results): 7.5 µg/mL (≈ 30.7 µM)
- Estrogenic effects in single testing (in words) [1]: showed estrogenic potential
- EC50 (MCF-7 cells): 1.8 µM
- IC50 (ERα): 50 µM

Compound: CC(C)(c1ccc(OCC(O)CO)cc1)c1ccc(OCC(O)CO)cc1 (stereo not drawn) [Bis-HPPP, bisphenol A bis(2,3-dihydroxypropyl) ether]
- Estrogenic effects in single testing (in words) [1]: not estrogenic

Compound: CC(C)(c1ccccc1)c1ccc(O)cc1 [4CP, 4-cumylphenol]
- Predicted no effect concentration (PNEC), freshwater (aquatic life): 14.2 µg/L
- Predicted no effect concentration (PNEC), freshwater sediments (aquatic life): 3.58 µg/g dry weight
- EC50 [3]: 65 µM
- EC50 [1]: 0.212 µM
- Mean contribution to estrogenicity of the quantified substances (toxic units) [1, 6]: 1%
- Potency compared to BPA in the luminescent bacteria assay (Aliivibrio fischeri): more potent
- Bioconcentration factor (BCF) [4]: up to 10
- Increase of P450 aromatase activity (P450 aromatase): 1.3 fold

Compound: CC(C)(c1ccc(O)cc1)c1ccc(O)cc1 [BPA, bisphenol A]
- Predicted no effect concentration (PNEC), freshwater (aquatic life): 18 µg/L
- Predicted no effect concentration (PNEC), freshwater sediments (aquatic life): 1.2 µg/g dry weight
- Mean contribution to estrogenicity of the quantified substances (toxic units) ([1]; leachates of UV irradiated coating A): 3%
- Mean contribution to estrogenicity of the quantified substances (toxic units) [1, 6]: 16%
- Half-life time of degradation under UV irradiation [5]: about 6 h
- IC50 (ERα): 10 µM
